In patent US20210186905A1, “ENHANCING T-CELL FUNCTION AND TREATING A T-CELL DYSFUNCTIONAL DISORDER WITH A COMBINATION OF AN LSD INHIBITOR AND A PD-1 BINDING ANTAGONIST” (EpiAxis Therapeutic Pty Ltd, priority 2017, published 2021):
Entries after “also recorded” stand apart in the source; their conditions may differ. Where a name gives a salt, the structure may show the parent alone.

Test system: CSV, LSD1p, SNAI1
Experiment: Immunofluorescence of cancer cells from primary tumor micro-environment, mesenchymal CTC signature panel
Type: in vivo, mouse
Conditions: cancer cells from primary TME; % change relative to vehicle control
Procedure: FIG. 2 is a graphical and photographic representation showing the efficacy of dual phenelzine sulfate (phenelzine) and anti-PD1 antibody (PD1) therapy on circulating tumor cells (CTCs) and cancer stem cells (CSC) as well as tumor burden. A. Statistics of tumor volumes on day 15 post-treatment. A Mann-Whitney non-parametric t-test was used to compare control vs other groups (*p<0.02, **p<0.008). Group A=Control, Group C: PD1 (10 mg/kg), Group D: Phenelzine (40 mg/kg), Group F: PD1+Phenelzine. Illustration of the treatment protocol is also shown. […] Representative images for each dataset are shown. […] C. […] (a) Representative images for each dataset are shown. (b) Graph represents the TCFI values for CD133 TNFI for ALDH1A and TFI for ABCB5 measured using ImageJ to select the nucleus/cytoplasm minus background (n>20 individual cells, Group A=Control, Group C: PD1 (10 mg/kg), Group D: Phenelzine (40 mg/kg), Group F: PD1+Phenelzine).
FIG. 11 is a photographic and graphical representation showing triple therapy efficacy on CTC/CSC and tumor burden. […] (b) Graph represents the TCFI values for CD133 TNFI for ALDH1A and TFI for ABCB5 measured using ImageJ to select the nucleus/cytoplasm minus background (n>20 individual cells, Group A=Control, Group B: Abraxane (30 mg/kg), Group C: anti-PD1 (10 mg/kg), Group D: Phenelzine (40 mg/kg), Group E: Abraxane+PD1, Group F: PD1+Phenelzine, Group G: Abraxane+Phenelzine, Group H: Triple Therapy). […]
A total of 2×10^5 cells were injected per mouse into mammary gland in 50 μL of phosphate buffered saline (PBS). […] Tumors were measured using calipers and the tumor volumes (mm3) were calculated using the formula (length×width2)/2. ? arvested cells from primary tumors where then cytospun ? -treated with poly-1-lysine and fixed then stored in PBS for IFA Microscopy Analysis. […] Digital images were analysed using ImageJ software (ImageJ, NIH, Bethesda, Md., USA) to determine the either the Total Nuclear Fluorescent Intensity (TNFI), the Total Cytoplasmic Fluorescent Intensity (TCFI) or total Fluorescent Intensity (TFI).

In the case of `NNCCc1ccccc1` (racemic) [phenelzine sulfate, (±)-2-phenylethylhydrazine], the SNAI1 expression is reported as “strong inhibition; also recorded: stronger inhibition”, the “expression of CSV” value is reported as “strong inhibition; also recorded: stronger inhibition” and the “nuclear expression of LSD1” value is reported as “strong inhibition; also recorded: stronger inhibition”.
